# Data published in patent US4868303A, “Bis-dioxopiperazine derivatives” (Zenyaku Kogyo Kabushiki Kaisha, priority 1986, dated 1989).
# What was measured:
# [1] = system: P388 lymphocytic leukemia; assay: Growth inhibition of tumor cells of P388 lymphocytic leukemia in vitro; format: cell-based, mouse (CDF1); details: Mus musculus, 48 hours at 37° C., read-out: 50% Inhibitory concentration of cell growth (IC50)
# Method: (I) Growth Inhibition of Tumor Cells of P388 Lymphocytic Leukemia in Vitro:
# Tumor cells were collected aseptically with capillary tube from ascites in CDF1 female mice transplanted intraperitoneally with 1×10^6cells of P388 lymphocytic leukemia 5 days before. Cell suspension was prepared at 5×10^4 cells/0.5 ml in a RPMI1640 medium supplemented with 10% fetal calf serum, kanamycin (0.1 mg/ml) and 2-hydroxyethyldisulfide (0.01 mM). Each test sample was dissolved or suspended in the medium at a concentration of 1×10^-1 -1×10^-5 mM.
# A test tube with Molton stopper loosely involving 0.5 ml each of the cell suspension and the sample suspension was kept for 48 hours at 37° C. in an incubator supplied with air containing 5% carbon dioxide. […] The cells harvested therefrom was counted by using of a Coulter Counter and the inhibition of cell growth was calculated by the following formula:
# Growth Inhibition (%)=(1-T/C)×100
# T: number of cells in the culture containing test sample
# C: number of cells in the culture of control
# V79 cells = assay: Inhibitory effect on colony formation of V79 cells in vitro; format: cell-based, Chinese hamster; details: Cricetulus griseus, 96 hours with sample, read-out: 90% inhibitory concentration (IC90)
# Method: (II) Inhibitory effect on Colony Formation of V79 Cells in Vitro:
# V79 cells established from Chinese hamster lung fibroblastoma were cultured routinely on plastic dishes (.phi. 60 mm) in RPMI 1640 medium supplemented with 10% fetal calf serum and kanamycin (0.1 mg/ml). Each confluent culture was then trypsinized by the addition of 1 ml of trypsin-EDTA solution (supplied by the firm GIBCO) for 5 minutes at 37° C. in an incubator supplied with humidified air containing 5% CO2.
# Homogeneous suspension of V79 cells thus obtained was diluted to 100, 200 and 400 viable cells/ml with the medium, and 1 ml each of them was transferred to other plastic dishes (.phi. 60 mm) containing 1.85 ml of the medium, and diluted to 100, 200 and 400 viable cells/dish.
# Each test sample was dissolved in DMSO at the concentration of 20 mM and diluted with the medium to the final concentration of 2×10^-3 -2×10^-10 mM.
# Each test dish was kept for 24 hours at 37° C. in an incubator supplied with humidified air containing 5% CO2, and was further cultured for 96 hours after 150 μl of the sample solution was added thereto.
# The cells were gently washed once with Mg- and Ca-free phosphate-buffered saline [PBS(-)] and fixed with 1 ml of 3.5% HCHO-PBS(-) solution for 2 hours, then stained with a crystal violet ethanol solution.
# The 90% inhibitory concentration (IC90) was calculated by comparing the number of visible colonies on the sample dish with that on the control dish.
# Acute toxicity (LD50) = details: mouse, in vivo, ip; intraperitoneal, suspended in saline with 1% HPC, observed 14 days
# Method: The acute toxicity of the compounds of the present invention was examined by the following test.
# The test group to which the compound of the present invention was administered consisted of five mice. Six weeks old male mice (ddY, 30±2 g of body weight) were employed as test animals.
# [2] = system: P388 lymphocytic leukemia; assay: Increase in life span on P388 lymphocytic leukemia tumor-transplanted mouse; format: in vivo, mouse (CDF1); details: P388, ip, 24 h, daily dose 2.3 mg/kg, intraperitoneal, day 1 and 5th day after transplantation, read-out: Rate of increase in life span (ILS)
# Method: (III) Increase in Life Span on P388 Lymphocytic Leukemia Tumor-transplantedMouse:
# The treated group to which the test sample was administered consisted of seven mice, while the control group consisted of ten mice. Six weeks old male mice (CDF1, 25±2 g of body weight) were employed as host animals.
# Tumor cells (1.0×10^6) of P388 lymphocytic leukemia were transplanted intraperitoneally into each mouse. The treatment was effected one day after the transplantation and on 5th day by administering prescribed dose of each test sample intraperitoneally to the mice.
# Antitumor activity of the test sample was evaluated by the rate of increase in life span (ILS) which was calculated with the following formula.
# T': median survival time of treated mice
# C': median survival time of control mice
smiles,measurement,setting,value
"Cc1cccc(C(=O)OCN2C(=O)CN([C@@H](C)[C@@H](C)N3CC(=O)NC(=O)C3)CC2=O)c1 (relative stereo) [Sample 14, erythro-2-[4-(3-toluoyloxmethyl)-3,5-dioxopiperazin-1-yl]-3-(3,5-dioxopiperazine-1-yl)butane]",IC50,[1],13 nM
same,IC90,V79 cells,0.051 nM
same,LD50 at 336 h,Acute toxicity (LD50),6.7 to 10 mg/kg
same,ILS at 2.3 mg/kg,[2],199%
